Test results taken from US12161722B2, “Bifunctional heterocyclic compound having BTK degradation function via ubiquitin proteasome pathway, and use thereof” (KOREA RESEARCH INSTITUTE OF CHEMICAL TECHNOLOGY, priority 2021, dated 2024).

Key:
C481S BTK protein = molecular target: T1, C481S BTK protein (Homo sapiens, UniProt Q06187, C481S); assay: BTK protein degradation assay (Western blotting), C481S BTK; format: cell-based; details: concentration range accounting for 50% degradation of C481S BTK protein, 293T BTK MUT (C481S) cells
T1 construct: expressed in transfected cells; host or cells: 293T BTK MUT (C481S) cells
Method: TMD-8, RAMOS, or 293T BTK MUT (C481S) cells were treated with the synthesized compounds and measured for intracellular BTK protein levels by Western blotting. The protocol of the experiment using TMD-8 cells is as follows.
The 12-well plates were treated as follows. A 10 mM stock was 1/10 diluted in series with DMSO ([…]) to form final concentrations of 10, 1, 0.1, 0.01, 0.001, and 0.0001 mM. The compounds with such concentrations were applied to cells, followed by harvesting the cells 24 hours later. For a negative control, a 1/10 dilution of DMSO in the medium (3 mL DMSO+27 mL medium) was used.
The 1-mL cell culture in each well was passed many times through a pipette and then transferred into a 1.5-mL microtube before centrifugation (500 g, 5 min, 4° C.). The supernatant was discarded and the cell pellet was washed with PBS. After centrifugation (500 g, 5 min, 4° C.) again, the supernatant was discarded and the cell pellet was taken.
A lysis buffer was prepared as follows. RIPA buffer (Biosesang, RC2038-050-00)+0.5 mM PMSF (SIGMA, P7626)+1×Protease/Phosphatase Inhibitor (Cell signaling, 5872S) was added in an amount […] per well and left for 30 minutes on ice (vortexing at 0 and 30 minutes) before sonication (5 cycles of pulse for 10 seconds and rest for 30 seconds, 70% amplification). The supernatant obtained by centrifugation (15000 g, 15 min, 4° C.) was transferred into a new microtube. Cells in each well of 96-well plates were 1/2 diluted with the RIPA buffer and incubated at 37° C. for 30 minutes with […] of a 50:1 mixture of BCA reagents A and B in BCA Protein Assay Kit (iNtRON, 21071). After being cooled for 10 minutes, the 96-well plates were measured for absorbance at 562 nm on the BioTek, SYNERGY H1 microplate reader. Samples were prepared by protein quantification based on the absorbance measurements and then boiled at 70° C. for 10 minutes. The sample buffer used in the case was prepared by mixing a NuPAGE or a Bolt 4× sample buffer (Invitrogen) and its 10× sample reducing agent depending on the gel to be used, and protein dilution was made in a RIPI buffer.
The samples were loaded in the same amount into a NuPAGE or Bolt Bis-tris 4-12% gradient gel and allowed to run therein (200 V, 35 minutes). The separated proteins were transferred onto a […] NC membrane, using Trans-blot Turbo (BIO-RAD) (1.3 A constant, 25V limit, 15 minutes). The membrane was blocked at room temperature for 1 hour with skim milk or Intercept Blocking Buffer (LI-COR, 927-60001):0.1% TBST=1:1. The membrane was incubated with Anti BTK Rabbit (1:1,000 in 5% skim milk/0.2% TBST, size: 77 kDa, Cell signaling Technology) at 4° C. overnight O/N or at room temperature for 2 hours and with Anti GAPDH Rabbit (1:10,000 in 5% BSA/0.2% TBST, size: 36 kDa, GENETEX) and Anti β-actin mouse (1:10,000 in 5% BSA/0.2% TBST, RT, size: 43 kDa, GENETEX) at room temperature for 1 or 3 hours. Then, the membrane was washed three times with 0.5% TBST for 5 minutes each time before incubation with the second antibody Anti-Rabbit IgG (1:5,000 in 5% Skim milk/TBST, CST), IRDye® 800CW Goat anti-Rabbit IgG Secondary Antibody (1:10,000 in 5% skim/TBST, RT 45 min), or IRDye® 680RD Goat anti-Mouse IgG Secondary Antibody (1:10,000 in 5% skim/TBST, RT 45 min) for 45 minutes at room temperature in a rocker. The membrane was washed five times with 0.5% TBST for 5 minutes in each time, followed by detection with LI-COR, Odyssey. In this regard, the detection proceeded, as it was, for house-keeping genes while using SuperSignal West Pico PLUS Chemiluminescent Substrate or SuperSignal West femto Maximum Sensitivity Substrate for BTK detection.
According to the concentration ranges of compounds accounting for 50% degradation of WT BTK protein and C481S BTK protein, the activities are expressed as +++(0.0001-0.01 μM), ++(0.01-1 μM), +(1-10 μM), −(>10 μM), and NT (not tested). […]

WT BTK protein = molecular target: T2, WT BTK protein (Homo sapiens, UniProt Q06187); assay: BTK protein degradation assay (Western blotting), WT BTK; format: cell-based; details: concentration range accounting for 50% degradation of WT BTK protein, TMD-8 or RAMOS cells, 24 hours
T2 construct: measured for intracellular BTK protein levels by Western blotting; endogenous in cells; host or cells: TMD-8 or RAMOS cells
In short: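 BTK levels were read by Western blotting (GAPDH and β-actin normalisers) in RIPA lysates of TMD-8 cells exposed to compounds for 24 h at 1×10^6 cells/mL. Results scored in ranges of the concentration producing 50% loss of WT BTK.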

T1 sequence (Q06187 whole entry C481S): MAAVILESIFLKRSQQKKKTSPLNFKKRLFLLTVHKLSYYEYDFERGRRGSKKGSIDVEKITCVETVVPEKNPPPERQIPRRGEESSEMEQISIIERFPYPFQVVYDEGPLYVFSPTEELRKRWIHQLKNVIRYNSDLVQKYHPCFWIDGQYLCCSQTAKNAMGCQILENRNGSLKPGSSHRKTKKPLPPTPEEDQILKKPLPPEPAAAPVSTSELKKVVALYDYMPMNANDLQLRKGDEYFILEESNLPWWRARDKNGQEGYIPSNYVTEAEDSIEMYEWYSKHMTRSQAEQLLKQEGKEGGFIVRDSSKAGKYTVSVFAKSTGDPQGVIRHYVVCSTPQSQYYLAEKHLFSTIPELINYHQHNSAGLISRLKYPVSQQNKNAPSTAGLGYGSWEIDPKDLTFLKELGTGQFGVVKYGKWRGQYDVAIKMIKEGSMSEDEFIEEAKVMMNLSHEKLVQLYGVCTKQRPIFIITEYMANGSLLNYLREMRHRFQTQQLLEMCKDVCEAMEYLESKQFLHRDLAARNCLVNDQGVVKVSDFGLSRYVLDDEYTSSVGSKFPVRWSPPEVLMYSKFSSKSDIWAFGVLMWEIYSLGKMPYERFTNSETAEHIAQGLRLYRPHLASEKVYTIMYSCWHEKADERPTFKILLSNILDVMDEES
T2 sequence (Q06187 whole entry): as the sequence (Q06187 whole entry C481S) above, with S481C counted along it

Structure (SMILES) | DC50 (C481S BTK protein) [nM] | DC50 (WT BTK protein) [nM]
Cc1cccc(C)c1Nc1nn(C)c2nc(Nc3ccc4c(c3)CN(C(=O)CCCCCNc3cccc5c3C(=O)N(C3CCC(=O)NC3=O)C5=O)CC4)ncc12 (stereo not drawn) [Compound 1, 4-((6-(7-((3-((2,6-Dimethylphenyl)amino)-1-methyl-1H-pyrazolo[3,4-d]pyrimidin-6-yl)amino)-3,4-dihydroisoquinolin-2 (1H)-yl)-6-oxohexyl)amino)-2-(2,6-dioxopiperidin-3-yl)isoindoline-1,3-dione] | > 10000 | 10 to 1000
Cc1cccc(C)c1Nc1nn(C)c2nc(Nc3ccc4c(c3)CN(C(=O)COCCOCCNc3ccc5c(c3)C(=O)N(C3CCC(=O)NC3=O)C5=O)CC4)ncc12 (stereo not drawn) [Compound 2, 5-((2-(2-(2-(7-((3-((2,6-Dimethylphenyl)amino)-1-methyl-1H-pyrazolo[3,4-d]pyrimidin-6-yl)amino)-3,4-dihydroisoquinolin-2 (1H)-yl)-2-oxoethoxy)ethoxy)ethyl)amino)-2-(2,6-dioxopiperidin-3-yl)isoindoline-1,3-dione] | 10 to 1000 | 0.1 to 10
Cc1cccc(C)c1Nc1nn(C)c2nc(Nc3ccc4c(c3)CN(C(=O)COCCOCCNc3cccc5c3C(=O)N(C3CCC(=O)NC3=O)C5=O)CC4)ncc12 (stereo not drawn) [Compound 3, 4-((2-(2-(2-(7-((3-((2,6-Dimethylphenyl)amino)-1-methyl-1H-pyrazolo[3,4-d]pyrimidin-6-yl)amino)-3,4-dihydroisoquinolin-2 (1H)-yl)-2-oxoethoxy)ethoxy)ethyl)amino)-2-(2,6-dioxopiperidin-3-yl)isoindoline-1,3-dione] | 1000 to 10000 | 0.1 to 10
Cc1cccc(C)c1Nc1nn(C)c2nc(Nc3ccc4c(c3)CN(C(=O)COCCOCCNC(=O)C3CCN(c5cccc6c5C(=O)N(C5CCC(=O)NC5=O)C6=O)CC3)CC4)ncc12 (stereo not drawn) [Compound 4, N-(2-(2-(2-(7-((3-((2,6-Dimethylphenyl)amino)-1-methyl-1H-pyrazolo[3,4-d]pyrimidin-6-yl)amino)-3,4-dihydroisoquinolin-2 (1H)-yl)-2-oxoethoxy)ethoxy)ethyl)-1-(2-(2,6-dioxopiperidin-3-yl)-1,3-dioxoisoindolin-4-yl)piperidine-4-carboxamide] | 1000 to 10000 | 10 to 1000
Cc1cccc(C)c1Nc1nn(C)c2nc(Nc3ccc4c(c3)CN(C(=O)COCCOCCOCCOCCNC(=O)C3CCN(c5cccc6c5C(=O)N(C5CCC(=O)NC5=O)C6=O)CC3)CC4)ncc12 (stereo not drawn) [Compound 5, N-(14-(7-((3-((2,6-Dimethylphenyl)amino)-1-methyl-1H-pyrazolo[3,4-d]pyrimidin-6-yl)amino)-3,4-dihydroisoquinolin-2 (1H)-yl)-14-oxo-3,6,9,12-tetraoxatetradecyl)-1-(2-(2,6-dioxopiperidin-3-yl)-1,3-dioxoisoindolin-4-yl)piperidine-4-carboxamide] | 10 to 1000 | 10 to 1000
COCCOc1cc(C)c(Nc2nn(C)c3nc(Nc4ccc5c(c4)C(C)(C)N(C(=O)CCC(=O)Nc4ccc(OCCOCCOCCOCCNc6cccc7c6C(=O)N(C6CCC(=O)NC6=O)C7=O)cc4)CC5)ncc23)c(C)c1 (stereo not drawn) [Compound 6, N-(4-(2-(2-(2-(2-((2-(2,6-Dioxopiperidin-3-yl)-1,3-dioxoisoindolin-4-yl)amino)ethoxy)ethoxy)ethoxy)ethoxy)phenyl)-4-(7-((3-((4-(2-methoxyethoxy)-2,6-dimethylphenyl)amino)-1-methyl-1H-pyrazolo[3,4-d]pyrimidin-6-yl)amino)-1,1-dimethyl-3,4-dihydroisoquinolin-2 (1H)-yl)-4-oxobutanamide] | 10 to 1000 | 10 to 1000
Cc1cccc(C)c1Nc1nn(C)c2nc(Nc3ccc4c(c3)CN(C(=O)CCCCCCCCCCCNc3cccc5c3C(=O)N(C3CCC(=O)NC3=O)C5=O)CC4)ncc12 (stereo not drawn) [Compound 7, 4-((12-(7-((3-((2,6-Dimethylphenyl)amino)-1-methyl-1H-pyrazolo[3,4-d]pyrimidin-6-yl)amino)-3,4-dihydroisoquinolin-2 (1H)-yl)-12-oxododecyl)amino)-2-(2,6-dioxopiperidin-3-yl)isoindoline-1,3-dione] | > 10000 | 0.1 to 10
Cc1cccc(C)c1Nc1nn(C)c2nc(Nc3ccc4c(c3)CN(C(=O)COCCOCCOCCOCCNc3ccc5c(c3)C(=O)N(C3CCC(=O)NC3=O)C5=O)CC4)ncc12 (stereo not drawn) [Compound 8, 5-((14-(7-((3-((2,6-Dimethylphenyl)amino)-1-methyl-1H-pyrazolo[3,4-d]pyrimidin-6-yl)amino)-3,4-dihydroisoquinolin-2 (1H)-yl)-14-oxo-3,6,9,12-tetraoxatetradecyl)amino)-2-(2,6-dioxopiperidin-3-yl)isoindoline-1,3-dione] | 10 to 1000 | 0.1 to 10
Cc1cccc(C)c1Nc1nn(C)c2nc(Nc3ccc4c(c3)CN(C(=O)COCCOCCOCCOCCNC(=O)COc3ccc5c(c3)C(=O)N(C3CCC(=O)NC3=O)C5=O)CC4)ncc12 (stereo not drawn) [Compound 9, N-(14-(7-((3-((2,6-Dimethylphenyl)amino)-1-methyl-1H-pyrazolo[3,4-d]pyrimidin-6-yl)amino)-3,4-dihydroisoquinolin-2 (1H)-yl)-14-oxo-3,6,9,12-tetraoxatetradecyl)-2-((2-(2,6-dioxopiperidin-3-yl)-1,3-dioxoisoindolin-5-yl)oxy)acetamide] | > 10000 | 10 to 1000
Cc1cccc(C)c1Nc1nn(C)c2nc(Nc3ccc4c(c3)CN(C(=O)COCCOCCOCCOCCNC(=O)CNc3cccc5c3C(=O)N(C3CCC(=O)NC3=O)C5=O)CC4)ncc12 (stereo not drawn) [Compound 10, N-(14-(7-((3-((2,6-Dimethylphenyl)amino)-1-methyl-1H-pyrazolo[3,4-d]pyrimidin-6-yl)amino)-3,4-dihydroisoquinolin-2 (1H)-yl)-14-oxo-3,6,9,12-tetraoxatetradecyl)-2-((2-(2,6-dioxopiperidin-3-yl)-1,3-dioxoisoindolin-4-yl)amino)acetamide] | > 10000 | 10 to 1000
Cc1cccc(C)c1Nc1nn(C)c2nc(Nc3ccc4c(c3)CN(Cc3cn(CCOCCOCCNC(=O)CNc5cccc6c5C(=O)N(C5CCC(=O)NC5=O)C6=O)nn3)CC4)ncc12 (stereo not drawn) [Compound 11] | > 10000 | 0.1 to 10
Cc1cccc(C)c1Nc1nn(C)c2nc(Nc3ccc4c(c3)CN(Cc3cn(CCOCCOCCNC(=O)CNc5ccc6c(c5)C(=O)N(C5CCC(=O)NC5=O)C6=O)nn3)CC4)ncc12 (stereo not drawn) [Compound 12, N-(2-(2-(2-(4-((7-((3-((2,6-Dimethylphenyl)amino)-1-methyl-1H-pyrazolo[3,4-d]pyrimidin-6-yl)amino)-3,4-dihydroisoquinolin-2 (1H)-yl)methyl)-1H-1,2,3-triazol-1-yl)ethoxy)ethoxy)ethyl)-2-((2-(2,6-dioxopiperidin-3-yl)-1,3-dioxoisoindolin-5-yl)amino)acetamide] | > 10000 | 10 to 1000
